Source: ChEMBL document CHEMBL3600371, “Design and synthesis of imidazole N-H substituted amide prodrugs as inhibitors of hepatitis C virus replication” (Bioorg Med Chem Lett, 2015)

Tests used:
[1] = tested on: Hepatitis C virus; assay: Antiviral activity against HCV genotype 1b replicon infected in human HuH7 cells assessed as inhibition of viral RNA replication by luciferase reporter assay; type: functional, organism-based, Hepacivirus hominis; settings: Huh-7
[2] = Stability of the compound in water at pH 2; type: physicochemical; settings: buffer
[3] = Stability of the compound in water at pH 7; type: physicochemical; settings: buffer
[4] = Stability of the compound in blood (unknown origin); type: ADME, tissue-based
[5] = tested on: Rattus norvegicus; assay: Drug level in Sprague-Dawley rat treated with ((S,S)-5,5'-([1,1'-Biphenyl]-4,4'-diyl)bis(2-((S)-1-((S)-2-((methoxycarbonyl)amino)-3-methylbutanoyl)pyrrolidin-2-yl)-1H-imidazole-5,1-diyl))bis(2-oxoethane-2,1-diyl)diacetate at 5 mg/kg, po measured over 9 hrs; type: ADME, organism-based; settings: in vivo
[6] = Cmax in Sprague-Dawley rat at 5 mg/kg, po; type: ADME, organism-based; design: dose 5 mg/kg, route oral; settings: in vivo
[7] = Tmax in Sprague-Dawley rat at 5 mg/kg, po; type: ADME, organism-based; settings: in vivo
[8] = AUC (0 to 8 hrs) in Sprague-Dawley rat at 5 mg/kg, po; type: ADME, organism-based; design: time < 8 hr, dose 5 mg/kg, route oral; settings: in vivo
[9] = AUC (0 to infinity) in Sprague-Dawley rat at 5 mg/kg, po; type: ADME, organism-based; design: dose 5 mg/kg, route oral, time infinity; settings: in vivo
[10] = Mean residence time in Sprague-Dawley rat at 5 mg/kg, po; type: ADME, organism-based; settings: in vivo
[11] = Half life in Sprague-Dawley rat at 5 mg/kg, po; type: ADME, organism-based; settings: in vivo
[12] = tested on: Hepatitis C virus; assay: microbe, parasite or virus in culture; settings: JFH-1, Huh-7
Description: Antiviral activity against HCV genotype 1b JFH-1 infected in human HuH7 cells assessed as inhibition of viral replication

[13] = tested on: Rattus norvegicus; assay: Prodrug conversion in Sprague-Dawley rat assessed as formation of daclatasvir at 5 mg/kg, po measured over 9 hrs; type: ADME, organism-based; settings: in vivo
[14] = Half life in blood (unknown origin); type: ADME, tissue-based
[15] = tested on: Rattus norvegicus; assay: Cmax in Sprague-Dawley rat assessed as daclatasvir at 5 mg/kg, po; type: ADME, organism-based; design: dose 5 mg/kg, route oral; settings: in vivo
[16] = tested on: Rattus norvegicus; assay: Tmax in Sprague-Dawley rat assessed as daclatasvir at 5 mg/kg, po; type: ADME, organism-based; settings: in vivo
[17] = tested on: Rattus norvegicus; assay: AUC (0 to 8 hrs) in Sprague-Dawley rat assessed as daclatasvir at 5 mg/kg, po; type: ADME, organism-based; design: time < 8 hr, dose 5 mg/kg, route oral; settings: in vivo
[18] = tested on: Rattus norvegicus; assay: AUC (0 to infinity) in Sprague-Dawley rat assessed as daclatasvir at 5 mg/kg, po; type: ADME, organism-based; design: dose 5 mg/kg, time infinity, route oral; settings: in vivo
[19] = tested on: Rattus norvegicus; assay: Mean residence time in Sprague-Dawley rat assessed as daclatasvir at 5 mg/kg, po; type: ADME, organism-based; settings: in vivo
[20] = tested on: Rattus norvegicus; assay: Half life in Sprague-Dawley rat assessed as daclatasvir at 5 mg/kg, po; type: ADME, organism-based; settings: in vivo
[21] = tested on: Hepatitis C virus; assay: Antiviral activity against HCV genotype 1 in patient assessed as virological response rate; type: functional, Hepacivirus hominis

SMILES | EC50 [1] [nM] | further results
COC(=O)N[C@H](C(=O)N1CCC[C@H]1c1ncc(-c2ccc(-c3ccc(-c4cnc([C@@H]5CCCN5C(=O)[C@@H](NC(=O)OC)C(C)C)n4C(=O)CCC4CCCCC4)cc3)cc2)n1C(=O)CCC1CCCCC1)C(C)C | 124 | 
COC(=O)N[C@H](C(=O)N1CCC[C@H]1c1ncc(-c2ccc(-c3ccc(-c4cnc([C@@H]5CCCN5C(=O)[C@@H](NC(=O)OC)C(C)C)n4C(=O)c4ccccc4)cc3)cc2)n1C(=O)c1ccccc1)C(C)C | 155 | 
CCCCC(=O)n1c(-c2ccc(-c3ccc(-c4cnc([C@@H]5CCCN5C(=O)[C@@H](NC(=O)OC)C(C)C)n4C(=O)CCCC)cc3)cc2)cnc1[C@@H]1CCCN1C(=O)[C@@H](NC(=O)OC)C(C)C | 231 | 
COC(=O)N[C@H](C(=O)N1CCC[C@H]1c1ncc(-c2ccc(-c3ccc(-c4cnc([C@@H]5CCCN5C(=O)[C@@H](NC(=O)OC)C(C)C)n4C(=O)CCc4ccccc4)cc3)cc2)n1C(=O)CCc1ccccc1)C(C)C | 988 | 
COC(=O)N[C@H](C(=O)N1CCC[C@H]1c1ncc(-c2ccc(-c3ccc(-c4cnc([C@@H]5CCCN5C(=O)[C@@H](NC(=O)OC)C(C)C)n4C(=O)OC)cc3)cc2)n1C(=O)OC)C(C)C | > 100000 | 
COC(=O)N[C@H](C(=O)N1CCC[C@H]1c1ncc(-c2ccc(-c3ccc(-c4cnc([C@@H]5CCCN5C(=O)[C@@H](NC(=O)OC)C(C)C)n4C(=O)C(C)(C)C)cc3)cc2)n1C(=O)C(C)(C)C)C(C)C | > 100000 | 
COC(=O)N[C@H](C(=O)N1CCC[C@H]1c1ncc(-c2ccc(-c3ccc(-c4cnc([C@@H]5CCCN5C(=O)[C@@H](NC(=O)OC)C(C)C)n4C(C)=O)cc3)cc2)n1C(C)=O)C(C)C | 12 | 
COC(=O)N[C@H](C(=O)N1CCC[C@H]1c1nc(-c2ccc(-c3ccc(-c4c[nH]c([C@@H]5CCCN5C(=O)[C@@H](NC(=O)OC)C(C)C)n4)cc3)cc2)c[nH]1)C(C)C |  | Stability [2]: Stable; Stability [3]: Stable; Stability [4]: Stable; Drug metabolism [5]: metabolite_detected; Cmax [6]: 484 ng/mL; Tmax [7]: 3.01 h; AUC(0-t) at 8 h [8]: 3210 ng·h/mL; AUC(0-inf) [9]: 3320 ng·h/mL; MRT [10]: 3.43 h; half-life [11]: 1.66 h; EC50 [12]: 0.028 nM
CCC(=O)n1c(-c2ccc(-c3ccc(-c4cnc([C@@H]5CCCN5C(=O)[C@@H](NC(=O)OC)C(C)C)n4C(=O)CC)cc3)cc2)cnc1[C@@H]1CCCN1C(=O)[C@@H](NC(=O)OC)C(C)C | 39 | 
COC(=O)N[C@H](C(=O)N1CCC[C@H]1c1ncc(-c2ccc(-c3ccc(-c4cnc([C@@H]5CCCN5C(=O)[C@@H](NC(=O)OC)C(C)C)n4C(=O)OC(C)(C)C)cc3)cc2)n1C(=O)OC(C)(C)C)C(C)C | > 100000 | 
COC(=O)N[C@H](C(=O)N1CCC[C@H]1c1ncc(-c2ccc(-c3ccc(-c4cnc([C@@H]5CCCN5C(=O)[C@@H](NC(=O)OC)C(C)C)n4C(=O)COC(C)=O)cc3)cc2)n1C(=O)COC(C)=O)C(C)C | 0.08 | Stability [2]: Stable; Stability [3]: Stable; Drug metabolism [13]: metabolite_detected; half-life [14]: < 0.5 h; Cmax [15]: 341 ng/mL; Tmax [16]: 4.05 h; AUC [17]: 3330 ng·h/mL; AUC [18]: 3440 ng·h/mL; MRT [19]: 4.01 h; t1/2 [20]: 2.93 h
COC(=O)N[C@H](C(=O)N1CCC[C@H]1c1ncc(-c2ccc(-c3ccc(-c4cnc([C@@H]5CCCN5C(=O)[C@@H](NC(=O)OC)C(C)C)n4C(=O)CCC4CCCC4)cc3)cc2)n1C(=O)CCC1CCCC1)C(C)C | 195 | 
CCCOC(=O)n1c(-c2ccc(-c3ccc(-c4cnc([C@@H]5CCCN5C(=O)[C@@H](NC(=O)OC)C(C)C)n4C(=O)OCCC)cc3)cc2)cnc1[C@@H]1CCCN1C(=O)[C@@H](NC(=O)OC)C(C)C | > 100000 | 
COC(=O)N[C@H](C(=O)N1CCC[C@H]1c1ncc(-c2ccc(-c3ccc(-c4cnc([C@@H]5CCCN5C(=O)[C@@H](NC(=O)OC)C(C)C)n4C(=O)OCC(C)=O)cc3)cc2)n1C(=O)OCC(C)=O)C(C)C | > 100000 | 
CCCCCCC(=O)n1c(-c2ccc(-c3ccc(-c4cnc([C@@H]5CCCN5C(=O)[C@@H](NC(=O)OC)C(C)C)n4C(=O)CCCCCC)cc3)cc2)cnc1[C@@H]1CCCN1C(=O)[C@@H](NC(=O)OC)C(C)C | 542 | 
CCCC(=O)n1c(-c2ccc(-c3ccc(-c4cnc([C@@H]5CCCN5C(=O)[C@@H](NC(=O)OC)C(C)C)n4C(=O)CCC)cc3)cc2)cnc1[C@@H]1CCCN1C(=O)[C@@H](NC(=O)OC)C(C)C | 85 | 
COC(=O)N[C@H](C(=O)N1CCC[C@H]1c1ncc(-c2ccc(-c3ccc(-c4cnc([C@@H]5CCCN5C(=O)[C@@H](NC(=O)OC)C(C)C)n4C(=O)c4ccc(C)cc4)cc3)cc2)n1C(=O)c1ccc(C)cc1)C(C)C | 231 | 
COC(=O)N[C@H](C(=O)N1CCC[C@H]1c1ncc(-c2ccc(-c3ccc(-c4cnc([C@@H]5CCCN5C(=O)[C@@H](NC(=O)OC)C(C)C)n4C(=O)C(C)C)cc3)cc2)n1C(=O)C(C)C)C(C)C | 131 | 
COC(=O)N[C@H](C(=O)N1CCC[C@H]1c1ncc(-c2ccc(-c3ccc(-c4cnc([C@@H]5CCCN5C(=O)[C@@H](NC(=O)OC)C(C)C)n4C(=O)c4ccc(Cl)cc4)cc3)cc2)n1C(=O)c1ccc(Cl)cc1)C(C)C | 77 | 
NC(=O)c1ncn([C@@H]2O[C@H](CO)[C@@H](O)[C@H]2O)n1 [RIBAVIRIN] |  | Activity [21]: <50%
COC(=O)N[C@H](C(=O)N1CCC[C@H]1c1ncc(-c2ccc(-c3ccc(-c4cnc([C@@H]5CCCN5C(=O)[C@@H](NC(=O)OC)C(C)C)n4C(=O)Cc4ccccc4)cc3)cc2)n1C(=O)Cc1ccccc1)C(C)C | 687 | 
CCOC(=O)n1c(-c2ccc(-c3ccc(-c4cnc([C@@H]5CCCN5C(=O)[C@@H](NC(=O)OC)C(C)C)n4C(=O)OCC)cc3)cc2)cnc1[C@@H]1CCCN1C(=O)[C@@H](NC(=O)OC)C(C)C | > 100000 | 
COC(=O)N[C@H](C(=O)N1CCC[C@H]1c1ncc(-c2ccc(-c3ccc(-c4cnc([C@@H]5CCCN5C(=O)[C@@H](NC(=O)OC)C(C)C)n4C(=O)CC(C)CC(C)(C)C)cc3)cc2)n1C(=O)CC(C)CC(C)(C)C)C(C)C (some centres not stated) | > 100000 | 
COC(=O)N[C@H](C(=O)N1CCC[C@H]1c1ncc(-c2ccc(-c3ccc(-c4cnc([C@@H]5CCCN5C(=O)[C@@H](NC(=O)OC)C(C)C)n4C(=O)CC4CCCCC4)cc3)cc2)n1C(=O)CC1CCCCC1)C(C)C | 110 | 
CCCCCC(=O)n1c(-c2ccc(-c3ccc(-c4cnc([C@@H]5CCCN5C(=O)[C@@H](NC(=O)OC)C(C)C)n4C(=O)CCCCC)cc3)cc2)cnc1[C@@H]1CCCN1C(=O)[C@@H](NC(=O)OC)C(C)C | 324 | 
COC(=O)N[C@H](C(=O)N1CCC[C@H]1c1ncc(-c2ccc(-c3ccc(-c4cnc([C@@H]5CCCN5C(=O)[C@@H](NC(=O)OC)C(C)C)n4C(=O)CC(C)(C)C)cc3)cc2)n1C(=O)CC(C)(C)C)C(C)C | > 100000 | 
COC(=O)N[C@H](C(=O)N1CCC[C@H]1c1ncc(-c2ccc(-c3ccc(-c4cnc([C@@H]5CCCN5C(=O)[C@@H](NC(=O)OC)C(C)C)n4C(=O)OC(C)C)cc3)cc2)n1C(=O)OC(C)C)C(C)C | > 100000 | 
